In patent US20030083374A1, “NAALADase inhibitors useful as pharmaceutical compounds and compositions” (priority 1998, published 2003):

Legend:
[1] = tested on: STZ-induced diabetic rats; assay: in vivo assay on neuropathic pain in STZ-diabetic rats (Hargreaves); parameters: species or system Male Sprague-Dawley rats; conditions: 10 mg/kg i.p. daily, started 45 days post-STZ
Description: (§1) Male Sprague-Dawley rats (200-225 g) were rendered diabetic by intravenous administration of streptozotocin (STZ, 70 mg/kg in phosphate buffered saline). Diabetic animals were divided into five groups: one group receiving Compound 2 (10 mg/kg or 1 mg/kg), Compound 1 (10 mg/kg or 1 mg/kg) or vehicle. Another group of animals (non-STZ treated) served as non-diabetic controls. Drug/vehicle treatment was started in diabetic animals 45 days post-STZ administration. STZ-induced diabetic rats were tested for sensitivity to a heat source as soon as blood glucose levels rose to 320 mg/dl or above (30 days post STZ). The rats were then acclimated to the Hargreaves apparatus and thermal nociception was monitored using an infrared heat source directed into the […] surface of the hindpaw, and the time taken for the animal to remove its paw noted to the nearest 0.1 seconds (see Hargreaves et al. 1998 for detailed method). The intensity of the beam source was adjusted such that the mean latency for control animals (non-STZ treated) was approximately 10 seconds. Each animal was tested 8 times and the mean difference score (between mean non-diabetic control latency and mean diabetic latency) are graphically presented in FIGS. 19A and 19B.

[2] = tested on: BB/W diabetic rats; assay: nerve conduction velocity in BB/W diabetic rats; format: in vivo, Male BB/W rats; conditions: 10 mg/kg daily; starting at 8 weeks, through six months
Source text: Male BB/W rats (BR1, Mass) spontaneously develop a cell mediated autoimmune destruction of pancreatic B cells, resulting in onset of insulin-dependent (Type I) diabetes (Guberski 1994). […] This renders them valuable for experimental trials of new compounds for future treatments of this major disorder. In the present study, Compound 1 and Compound 2 were examined for their ability to alter the progression of diabetic neuropathy. The rats received daily injection of Compound 1 or Compound 2 (10 mg/kg i.p.) or vehicle, starting at the onset of diabetes (hyperglycemia) and up to 6 months thereafter. Another group of non-diabetic rats also receiving vehicle were tested. All animals were continuously monitored for body weight, urine volume, blood sugar and glycated haemoglobin. In the first month of the study, all animals were tested for thermal nociception in a Hargreaves apparatus, weekly. After the first month this was done biweekly and then monthly. The testing consists of directing an infrared heat source onto the […] surface of the rat hindpaw and noting the time taken for the animal to remove its paw (for detailed method see Hargreaves et al. 1998). […]
Nerve conduction velocity was also measured every two weeks through the first eight weeks of treatment and every month thereafter through to the six months of treatment (see De Koning et al. 1987 for method details). […]

[3] = tested on: STZ-diabetic animals; assay: motor and sensory nerve conduction velocity in STZ-diabetic animals; format: in vivo, rats; conditions: either dose (10 mg/kg or 1 mg/kg); significant after 12 weeks at 10 mg/kg, earlier at 1 mg/kg
Description: as §1
Motor and sensory nerve conduction velocity was also measured in STZ-diabetic animals after 4, 8 and 12 weeks of treatment (see De Koning and Gispen 1987 for detailed method). Briefly, stimulating needle electrodes were inserted close to the sciatic and tibial nerves with recording electrodes being placed subcutaneously over the distal foot muscles, in anesthetized rats.

[4] = tested on: cortical cell cultures; assay: in vitro assay of NAALADase inhibitors on ischemia in cortical cell cultures; format: cell-based; conditions: concentration required to cause a 50% reduction in glutamate toxicity following an ischemic insult (potassium cyanide and 2-deoxyglucose)
Source text: Some results are set forth in U.S. Pat. Nos. 5,672,592, 5,795,877, 5,863,536, 5,880,112 and 5,902,817, allowed U.S. patent application Ser. Nos. 08/825,997, 08/833,628, 08/842,360 and 08/899,319 for which the issue fees have been paid, the entire contents of which patents and applications are herein incorporated by reference. Other results are provided below in TABLE III.

O=C(O)CCC(CCS)C(=O)O (stereo not shown) [Compound 1, 2-(2-sulfanylethyl)pentanedioic acid]
hyperalgesic response in diabetic rats [1]: completely reversed
nerve conduction deficits vs. diabetic controls receiving vehicle [2]: significantly less severe nerve conduction deficits
motor and sensory nerve conduction velocities vs. diabetic controls [3]: increased
EC50 [4]: 2 nM
